These are literature values, as cited in patent US10449129B2, “Encapsulates of salicylic acid and polysalicylic acid derivatives” (Biocogent, LLC, priority 2015, dated 2019).

For the series the following is noted: room temperature.

In the case of `O=C(O)c1ccccc1O` [SA, salicylic acid], the “limit of solubility in water” value is “approximately 0.2%”.
